The numbers were not newly measured in patent US20240165053A1, “Topical Medicament for Use in Treatment of Anorectal Inflammation” (priority 2022, published 2024), which cites them from elsewhere.

The subject of the series is swollen hemorrhoids.

Consider `OC[C@H]1O[C@@](CO)(O[C@H]2O[C@H](CO)[C@@H](O)[C@H](O)[C@H]2O)[C@@H](O)[C@@H]1O` [granulated sugar, Sucrose], for which, for the setting “topical application on prolapsed hemorrhoids”, the “time of application after which the difference is noticeable with the naked eye” value is 10 min. Moreover, under “topical application, medical studies”, the “edema reduction of swollen hemorrhoids” value is “immediate edema reduction”.
